Experimental findings from PubChem BioAssay AID2423 (Broad Institute, 2010) are described below.

Results filed as inconclusive are left out. Active and inactive are the calls of the source. No rule for the calls is given here.

The subject of this test is C. albicans CaCi-8 + fluconazole, Alamar Blue growth, 48 h. Briefly: resistant C. albicans growth inhibition with fluconazole, dose response, CaCi-8 strain, Alamar Blue fluorescence (AID 2423).
With `O=Nc1c(O)n(Cc2cccc(Cl)c2)c2ccccc12`, the EC50 is 1200 nM. As to `O=C(CCS(=O)(=O)Cc1ccccc1)Nc1nnc(C(F)(F)F)s1`, the EC50 was 746 nM. With `O=C(Nc1nc2ccc(S(=O)(=O)N3CCCCC3)cc2s1)c1ccncc1`, the EC50 is 1040 nM. For `CC(=O)N(O)CCCCCNC(=O)CCC(=O)N(O)CCCCCNC(=O)CCC(=O)N(O)CCCCCN` the value was 727 nM. On to `O=C(NCC1CCCO1)c1cc2n(n1)C(C(F)(F)F)CC(c1ccc(Br)cc1)N2` (centres undefined), for which the EC50 is 7570 nM. As for `Nc1c(S(=O)(=O)c2ccccc2)c2nc3ccccc3nc2n1CCN1CCOCC1`, the EC50 is 2970 nM. As to `Oc1c(C(c2ccccn2)N2CCC(Cc3ccccc3)CC2)cc(Cl)c2cccnc12` (centres undefined), the 50% effective concentration (EC50) was 1880 nM. Under `c1ccc(Sc2cccc3ccccc23)c(CNC2=NCCN2)c1` stands 9520 nM; under `Cc1cc(N/N=C/c2c(O)ccc3ccccc23)nc(-c2ccccc2O)n1`, 133 nM.

Regarding `Cc1ccc(NC(=O)c2noc(C(C)C)c2[N+](=O)[O-])cc1`, the concentration for a half-maximal effect (EC50) is 3200 nM. Take `CCOC(=O)COc1ccc(S(=O)(=O)N2CCN(c3ccccc3F)CC2)cc1`: the EC50 was > 15000 nM (inactive). Consider `CCc1ccc(/C=C2/SC(=S)N(CCCC(=O)Nc3ccccc3C(=O)O)C2=O)cc1`, for which the EC50 is 982 nM. `CCOC(=O)c1c(NC(=S)NCC2CCCO2)sc(C)c1C` (centres undefined): the EC50 is less than 120 nM. For `COc1ccc(C2N=C(Nc3ccc(C)cc3)Nc3nc(C)cc(=O)n32)cc1` (centres undefined) the value was > 16000 nM (inactive); for `Cc1ccc(S(=O)(=O)CC(C)N2CCOCC2)c(S(=O)(=O)CC(C)N2CCOCC2)c1` (centres undefined), > 16000 nM (inactive); for `O=C(Nc1ccc(N=Nc2ccccc2)c(NC(=O)C2CCCO2)c1)C1CCCO1` (centres undefined), 4770 nM. For the molecule `O=C(O/N=C1/CCSc2ccccc21)c1ccc(F)cc1`, the EC50 is > 15000 nM (inactive).

As to `Cc1cccc(Cc2nnc(CCC(=O)N3CCCCC3c3nccs3)o2)c1` (centres undefined), the EC50 is > 16000 nM (inactive). Under `O=C(CSc1nnc(-c2ccc(Br)cc2)o1)Nc1cccc2ccccc12` stands 15600 nM.

For the molecule `CCN1/C(=C/c2ccc3cccc(C)c3[n+]2CC)Sc2ccccc21`, the EC50 is less than 120 nM.

For `CCCCc1c(O)nc(SCC(=O)Nc2cccc3ccccc23)n(-c2ccccc2OC)c1=O`, the EC50 is 7770 nM. Under `CC(C)(C)CC(=O)Nc1nnc(C(F)(F)F)s1` stands > 16000 nM (inactive); under `O=C(O)c1ccc(CN2C(=O)CSC2=S)cc1`, > 15000 nM (inactive).

As for `Cc1ccccc1C(=O)O/N=C/c1c(N2CCOCC2)n(C)c2ccccc12`, the EC50 is 593 nM.

For the molecule `O=C(c1ccc(Cn2c(=S)[nH]c3ccccc3c2=O)cc1)N1CCN(c2ccccn2)CC1`, the concentration for a half-maximal effect (EC50) is 695 nM. For `Oc1c(C(Nc2cccc(C(F)(F)F)c2)c2ccncc2)ccc2cccnc12` (centres undefined), the EC50 was 2440 nM.

For `CCOc1cc(-c2nc(-c3cc(OC)c(OC)c(OC)c3)no2)cc(OCC)c1OCC`, the EC50 is > 16000 nM (inactive). Turning to `CCCc1nnc(NC(=S)Nc2ccccc2)s1`, the EC50 was 1340 nM. For the molecule `CC(=O)Nc1ccc(N2CC(C)(C)C2=O)cc1`, the EC50 was > 15000 nM (inactive). With `COc1cccc(COc2cc3ccccc3nc2C)c1`, the 50% effective concentration (EC50) is 1060 nM. In the case of `CC(c1ccc(Cl)cc1)n1c(-c2ccc3ccccc3n2)n[nH]c1=S` (centres undefined), the concentration for a half-maximal effect (EC50) is 5260 nM. Under `Cc1ccc(C(=O)c2coc3c2C(=O)C(=O)c2ccccc2-3)cc1` stands 146 nM; under `CC1CCN(C(=O)Cn2c3ccccc3c3nc4n(c(=O)c32)CCS4)CC1`, > 16000 nM (inactive). Consider `O=C(N/N=C\C=C\c1ccc([N+](=O)[O-])o1)c1cccs1`, for which the EC50 was > 16000 nM (inactive).

As to `C=CCN1C(=O)N/C(=C/c2ccc(N3CCOCC3)o2)C1=O`, the EC50 was 796 nM. `CCN(CC)c1ccc(/C=C/c2cccc[n+]2C)c(OC)c1`: the concentration giving a half-maximal response (EC50) is 1230 nM.

Take `O=c1c2ccccc2nc(/C=C/c2ccc([N+](=O)[O-])o2)n1-c1ccc(O)cc1`: the EC50 was less than 120 nM. Regarding `COc1ccc(-c2nn(-c3ccccc3)cc2/C=N/NC(=S)NC(C)C)cc1OC`, the EC50 is 1890 nM. Under `CN(C)CCCNc1cc(C(C)(C)C)nc2c(-c3ccc(Cl)cc3)cnn12` stands 5200 nM; under `CCC(=O)NC(c1cccs1)c1ccc2cccnc2c1O` (centres undefined), 1510 nM; under `O=C(O)c1ccc(-c2nc(-c3ccc(Cl)c(Cl)c3)cs2)cc1`, 4160 nM.

On to `O=C(Nc1ccc(F)c(Cl)c1)NC1CC1`, for which the EC50 was 1490 nM.

For `O=C1C2CCN(CC2)C1Cc1ccc(OCc2ccccc2)cc1` (centres undefined), the EC50 is 2190 nM. As to `Cc1ccsc1C(=O)OCC(=O)Nc1sccc1C(N)=O`, the EC50 is 866 nM.

On to `O=C(Cc1cccs1)Nc1cccc(-c2nc3ccccc3[nH]2)c1`, for which the EC50 is 798 nM. In the case of `Cc1nn(-c2ccccc2)c(N2CCCC2)c1/C=N/NC(=O)c1ccccc1O`, the EC50 is > 15000 nM (inactive).

On to `O=C(N/N=C/c1cc2c3c(c1O)CCCN3CCC2)c1ccccc1O`, for which the EC50 was 895 nM. For `O=C(Nc1cccc(-c2cn3ccccc3n2)c1)c1cccc(Cl)c1`, the EC50 is 715 nM. For `CCCS(=O)(=O)c1nnnn1-c1cccc(OC)c1`, the EC50 is > 15000 nM (inactive). `Fc1cccc(-n2cc(-c3ccccc3)c3c(=S)nc[nH]c32)c1`: the EC50 was 1800 nM.

As to `COc1ccc(C(=O)On2c(-c3ccc(Br)cc3)nc3ccccc3c2=O)cc1`, the EC50 was 1110 nM. Turning to `COc1ccc(C2C(C(=O)c3cccs3)=C(O)C(=O)N2c2nncs2)cc1` (centres undefined), the EC50 was 15200 nM. As for `CN(C)S(=O)(=O)Oc1cccc(C(=O)Nc2ccc(Cl)cc2)c1`, the 50% effective concentration (EC50) was 2970 nM. Turning to `O=C(Oc1cc2oc(=O)cc(-c3ccccc3)c2cc1Cl)C1CCCCC1`, the EC50 was 1200 nM.

In the case of `Cn1c(N2CCOCC2)c(/C=N/OC(=O)c2ccc(F)cc2)c2ccccc21`, the EC50 was 630 nM. Under `CC(=O)c1cc(C#N)c(N2CCCC2)nc1C` stands > 16000 nM (inactive); under `NC(=O)c1ccsc1NC(=O)CCS(=O)(=O)c1ccccc1`, 1730 nM; under `O=C(Nc1nc(=O)c2ccccc2s1)c1ccccc1`, > 15000 nM (inactive).

Regarding `CCCc1cc(=O)[nH]c(SCC(=O)Nc2ccc(Br)cc2Br)n1`, the half-maximal effective concentration (EC50) was 2590 nM. Under `COc1cccc(C2C(C(=O)c3cc4ccccc4o3)=C(O)C(=O)N2c2cc(C)on2)c1OC` (centres undefined) stands 154 nM; under `CN1CCN(C(c2ccccn2)c2cc(Cl)c3cccnc3c2O)CC1` (centres undefined), 1170 nM; under `C(=C\c1ccccc1)/CN1CCN(c2ncnc3c2oc2ccccc23)CC1`, less than 120 nM. `CCCCCCCCCCCCCCCC[N+](C)(C)C`: the EC50 is > 15000 nM (inactive).

Take `Oc1ccc(/C=N/N(c2ccccc2)c2ccccc2)c(O)c1O`: the EC50 was 10800 nM.

For `Cc1ccc(S(=O)(=O)N(C)c2ccc(OCC(=O)Nc3nnc(C4CC4)s3)cc2)cc1`, the EC50 is 708 nM. Regarding `N#C/C(=C(/O)c1ccco1)c1nc2ccccc2[nH]1`, the 50% effective concentration (EC50) was 676 nM.

On to `CCC(=O)NC(c1ccc(OC)cc1)c1cc(Cl)c2cccnc2c1O` (centres undefined), for which the concentration for a half-maximal effect (EC50) was 976 nM. As for `COc1cc2c(cc1O)CC[n+]1cc3c(OC)c(OC)ccc3cc1-2`, the EC50 was > 16000 nM (inactive).

Take `O=C(O)COc1ccccc1C(Nc1cccnc1)c1cc(Cl)c2cccnc2c1O` (centres undefined): the EC50 is 9890 nM.

As usually defined, the EC50 is the concentration needed to bring the measured effect to its halfway point.
